The text below walks through data of patent US8524750B2, “(Pyrazol-3-yl)-1,3,4-thiadiazol-2-amine and (pyrazol-3-yl)-1,3,4-thiazol-2-amine compounds” (Glaxo Group Limited, priority 2009, dated 2013).

The subject of test [1] is Mycobacterium tuberculosis H37Rv. The test is described as follows: Mycobacterium tuberculosis H37Rv Inhibition Assay (Whole Cell Assay). Format: cell-based. Conditions: ATCC 25618 / H37Rv, H37Rv strain (ATCC25618), Middlebrook 7H9, six days at 37° C., resazurin fluorescence after 48 hours.
Test [2] deals with T1, Mycobacterium tuberculosis InhA (Mycobacterium tuberculosis, UniProt P9WGR1).
T1 construct: made in house; host or cells: E. coli
The test is described as follows: Mycobacterium tuberculosis InhA Inhibition Assay (Enzyme Assay). The format is biochemical. The settings on record: 5 nM InhA, 50 μM DDCoA, 50 μM NADH, PIPES buffer pH 6.8, initial velocities of NADH consumption. As to the method: Mycobacterium tuberculosis InhA Inhibition Assay (Enzyme Assay)
InhA is able to reduce 2-trans enoyl-CoA esters with concomitant oxidation of NADH to NAD^+. The assay format is based on the kinetic detection of NADH consumption.
Assay for InhA inhibition is carried out with mycobacterium recombinant protein expressed and purified form E. coli. Standard assay conditions for the determination of kinetic constants and inhibitors activity use 5 nM of InhA, 50 μM of Dodecenoyl-CoA synthesized and purified as described by Quernard et al (DDCoA) and 50 μM of NADH as substrates, and it is carried out in 30 mM PIPES buffer pH 6.8, containing 0.05% of BSA. […] Triclosan is used as positive control in every experiment. One μl of compounds is added to the wells containing 25 μl of the DDCoA+NADH mix, the reaction is started by adding 50 μl of the enzyme solution. Fluorescence from NADH is followed at room temperature during 20 minutes in a fluorescent plate reader (excitation at 340 nm; emission at 480 nm). IC50 values are determined using initial velocities of NADH consumption.
Quernard A, Sacchettini J C, Dessen A, et al. Enzymatic characterization of the target for isoniazid in Mycobacterium tuberculosis. Biochemistry 1995; 34:8235-41.

Each structure is given as a SMILES string. pIC50: −log10 of the molar value. Converted amounts (≈) assume the structure as drawn. Like-named read-outs stand apart in the source and are kept apart here.

As usually defined, the MIC is the lowest concentration that inhibits growth of the organism. A higher MIC goes with weaker potency. As usually defined, the pIC50 is the IC50 on a negative log10 scale, so that one unit is a factor of ten.

T1 sequence (P9WGR1 whole entry, looked up): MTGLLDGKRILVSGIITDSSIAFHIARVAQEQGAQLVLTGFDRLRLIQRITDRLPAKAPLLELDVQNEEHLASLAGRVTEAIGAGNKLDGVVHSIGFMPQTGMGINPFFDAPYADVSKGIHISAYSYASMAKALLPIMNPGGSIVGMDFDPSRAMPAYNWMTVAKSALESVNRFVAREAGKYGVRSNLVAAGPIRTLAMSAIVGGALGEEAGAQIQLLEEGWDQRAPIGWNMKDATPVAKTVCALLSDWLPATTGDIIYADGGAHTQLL

As to `Cc1ccn(Cc2nnc(Nc3ccn(Cc4c(F)cccc4Cl)n3)s2)n1` [Example 39, N-{1-[(2-chloro-6-fluorophenyl)methyl]-1H-pyrazol-3-yl}-5-[(3-methyl-1H-pyrazol-1-yl)methyl]-1,3,4-thiadiazol-2-amine], the MIC in test [1] is 1 to 4 µM (≈ 0.404 to 1.62 µg/mL). In addition, the pIC50 in test [2] (read-out: IC50 value) is above 6.91.
The corresponding values for `Cc1cc([N+](=O)[O-])nn1C(C)c1nnc(Nc2ccn(Cc3ccccc3Cl)n2)s1` (stereo not shown) [Example 40, N-{1-[(2-chlorophenyl)methyl]-1H-pyrazol-3-yl}-5-[1-(5-methyl-3-nitro-1H-pyrazol-1-yl)ethyl]-1,3,4-thiadiazol-2-amine] are 1 to 4 µM (≈ 0.445 to 1.78 µg/mL) and above 6.95.
The corresponding values for `Cc1cc(C(F)F)nn1C(C)c1nnc(Nc2ccn(Cc3ccccc3Cl)n2)s1` (stereo not shown) [Example 41, N-{1-[(2-chlorophenyl)methyl]-1H-pyrazol-3-yl}-5-{1-[3-(difluoromethyl)-5-methyl-1H-pyrazol-1-yl]ethyl}-1,3,4-thiadiazol-2-amine] are 4 to 10 µM (≈ 1.8 to 4.5 µg/mL) and above 6.95.
In turn, `Cc1ccn(C(C)c2nnc(Nc3ccn(Cc4ccccc4Cl)n3)s2)n1` (stereo not shown) [Example 42, N-{1-[(2-chlorophenyl)methyl]-1H-pyrazol-3-yl}-5-[1-(3-methyl-1H-pyrazol-1-yl)ethyl]-1,3,4-thiadiazol-2-amine] displayed an MIC in test [1] of 1 to 4 µM (≈ 0.4 to 1.6 µg/mL). Moreover, the pIC50 in test [2] (read-out: IC50 value) was above 6.90.
In the same order, the values of `Cc1cc(C(F)F)nn1C(C)c1nnc(Nc2ccn(Cc3ccccc3)n2)s1` (stereo not shown) [Example 43, 5-{1-[3-(difluoromethyl)-5-methyl-1H-pyrazol-1-yl]ethyl}-N-[1-(phenylmethyl)-1H-pyrazol-3-yl]-1,3,4-thiadiazol-2-amine] are 4 to 10 µM (≈ 1.66 to 4.15 µg/mL) and above 6.92.
In turn, `Cc1ccn(C(C)c2nnc(Nc3ccn(Cc4ccccc4)n3)s2)n1` (stereo not shown) [Example 44, 5-[1-(3-methyl-1H-pyrazol-1-yl)ethyl]-N-[1-(phenylmethyl)-1H-pyrazol-3-yl]-1,3,4-thiadiazol-2-amine] yielded an MIC in test [1] of 1 to 4 µM (≈ 0.365 to 1.46 µg/mL). The pIC50 in test [2] (IC50 value) was 6.56 to 6.86.
In the same order, the values of `Cc1cc(C(F)F)nn1Cc1nnc(Nc2ccn(Cc3ccccc3)n2)s1` [Example 45, 5-{[3-(difluoromethyl)-5-methyl-1H-pyrazol-1-yl]methyl}-N-[1-(phenylmethyl)-1H-pyrazol-3-yl]-1,3,4-thiadiazol-2-amine] are above 10 µM and 6.60 to 6.90.
In the same order, the values of `Cc1cc(C(F)F)nn1Cc1nnc(Nc2ccn(Cc3ccccc3Cl)n2)s1` [Example 46, N-{1-[(2-chlorophenyl)methyl]-1H-pyrazol-3-yl}-5-{[3-(difluoromethyl)-5-methyl-1H-pyrazol-1-yl]methyl}-1,3,4-thiadiazol-2-amine] are above 10 µM and above 6.94.
`O=[N+]([O-])c1ccn(Cc2nnc(Nc3ccn(Cc4c(Cl)cccc4Cl)n3)s2)n1` [Example 47, N-{1-[(2,6-dichlorophenyl)methyl]-1H-pyrazol-3-yl}-5-[(3-nitro-1H-pyrazol-1-yl)methyl]-1,3,4-thiadiazol-2-amine] had an MIC in test [1] above 10 µM. For the same compound, the pIC50 in test [2] (IC50 value) is above 6.96.
In the same order, the values of `Cc1cc(C(F)(F)F)nn1Cc1nnc(Nc2ccn(Cc3ccccc3Cl)n2)s1` [Example 48, N-{1-[(2-chlorophenyl)methyl]-1H-pyrazol-3-yl}-5-{[5-methyl-3-(trifluoromethyl)-1H-pyrazol-1-yl]methyl}-1,3,4-thiadiazol-2-amine] are above 10 µM and 6.66 to 6.96.
Regarding `O=[N+]([O-])c1ccn(Cc2nnc(Nc3ccn(Cc4ccccc4Cl)n3)s2)n1` [Example 49, N-{1-[(2-chlorophenyl)methyl]-1H-pyrazol-3-yl}-5-[(3-nitro-1H-pyrazol-1-yl)methyl]-1,3,4-thiadiazol-2-amine], the MIC in test [1] was above 10 µM. Further, in test [2] (read-out: IC50 value), the pIC50 was above 6.92.
The corresponding values for `Cc1cc([N+](=O)[O-])nn1Cc1nnc(Nc2ccn(Cc3c(F)cccc3Cl)n2)s1` [Example 50, N-{1-[(2-chloro-6-fluorophenyl)methyl]-1H-pyrazol-3-yl}-5-[(5-methyl-3-nitro-1H-pyrazol-1-yl)methyl]-1,3,4-thiadiazol-2-amine] are above 10 µM and above 6.95.
Turning to `Cc1cc(C)n(Cc2nnc(Nc3ccn(Cc4c(F)cccc4Cl)n3)s2)n1` [Example 51, N-{1-[(2-chloro-6-fluorophenyl)methyl]-1H-pyrazol-3-yl}-5-[(3,5-dimethyl-1H-pyrazol-1-yl)methyl]-1,3,4-thiadiazol-2-amine], the MIC in test [1] is above 10 µM. Besides, the pIC50 in test [2] (read-out: IC50 value) was above 6.92.
As for `O=[N+]([O-])c1ccn(Cc2nnc(Nc3ccn(Cc4c(F)cccc4Cl)n3)s2)n1` [Example 52, N-{1-[(2-chloro-6-fluorophenyl)methyl]-1H-pyrazol-3-yl}-5-[(3-nitro-1H-pyrazol-1-yl)methyl]-1,3,4-thiadiazol-2-amine], the MIC in test [1] was above 10 µM. In test [2] (IC50 value), this compound gave a pIC50 of 6.64 to 6.94.
Compound `Cc1cc(C)n(Cc2nnc(Nc3ccn(Cc4c(Cl)cccc4Cl)n3)s2)n1` [Example 53, N-{1-[(2,6-dichlorophenyl)methyl]-1H-pyrazol-3-yl}-5-[(3,5-dimethyl-1H-pyrazol-1-yl)methyl]-1,3,4-thiadiazol-2-amine] came in with an MIC in test [1] above 10 µM. In test [2] (read-out: IC50 value), the pIC50 is above 6.94.
In the same order, the values of `Cc1ccn(C(C)c2nnc(Nc3ccn(Cc4c(Cl)cccc4Cl)n3)s2)n1` (stereo not shown) [Example 54, N-{1-[(2,6-dichlorophenyl)methyl]-1H-pyrazol-3-yl}-5-[1-(3-methyl-1H-pyrazol-1-yl)ethyl]-1,3,4-thiadiazol-2-amine] are 1 to 4 µM (≈ 0.434 to 1.74 µg/mL) and above 6.94.
In test [1], `Cc1cc(C(F)F)nn1Cc1nnc(Nc2ccn(Cc3c(F)cccc3Cl)n2)s1` [Example 55, N-{1-[(2-chloro-6-fluorophenyl)methyl]-1H-pyrazol-3-yl}-5-([3-(difluoromethyl)-5-methyl-I H-pyrazol-1-yl]methyl}-1,3,4-thiadiazol-2-amine] had an MIC above 10 µM. Moreover, the pIC50 in test [2] (read-out: IC50 value) is above 6.96.
In test [1], `Cc1cc(C)n(Cc2nnc(Nc3ccn(Cc4ccccc4Cl)n3)s2)n1` [Example 56, N-{1-[(2-chlorophenyl)methyl]-1H-pyrazol-3-yl}-5-[(3,5-dimethyl-1H-pyrazol-1-yl)methyl]-1,3,4-thiadiazol-2-amine] gave an MIC above 10 µM. Further, the negative-log IC50 (pIC50) in test [2] (read-out: IC50 value) is above 6.90.
On to `Cc1ccn(Cc2nnc(Nc3ccn(Cc4c(Cl)cccc4Cl)n3)s2)n1` [Example 57, N-{1-[(2,6-dichlorophenyl)methyl]-1H-pyrazol-3-yl}-5-[(3-methyl-1H-pyrazol-1-yl)methyl]-1,3,4-thiadiazol-2-amine], for which the MIC in test [1] was above 10 µM. Further, the pIC50 in test [2] (read-out: IC50 value) is above 6.92.
In the same order, the values of `Cc1cc([N+](=O)[O-])nn1Cc1nnc(Nc2ccn(Cc3ccccc3Cl)n2)s1` [Example 58, N-{1-[(2-chlorophenyl)methyl]-1H-pyrazol-3-yl}-5-[(5-methyl-3-nitro-1H-pyrazol-1-yl)methyl]-1,3,4-thiadiazol-2-amine] are above 10 µM and 5.94 to 6.63.
In test [1], `FC(F)(F)c1ccn(Cc2nnc(Nc3ccn(Cc4ccccc4Cl)n3)s2)n1` [Example 59, N-{1-[(2-chlorophenyl)methyl]-1H-pyrazol-3-yl}-5-{[3-(trifluoromethyl)-1H-pyrazol-1-yl]methyl}-1,3,4-thiadiazol-2-amine] came in with an MIC above 10 µM. Further, the pIC50 in test [2] (read-out: IC50 value) was 5.94 to 6.64.
In the same order, the values of `Cc1ccn(Cc2nnc(Nc3ccn(Cc4ccccc4)n3)s2)n1` [Example 60, 5-[(3-methyl-1H-pyrazol-1-yl)methyl]-N-[1-(phenylmethyl)-1H-pyrazol-3-yl]-1,3,4-thiadiazol-2-amine] are above 10 µM and 5.85 to 6.55.
In the same order, the values of `FC(F)(F)c1ccn(Cc2nnc(Nc3ccn(Cc4ccccc4)n3)s2)n1` [Example 61, N-[1-(phenylmethyl)-1H-pyrazol-3-yl]-5-{[3-(trifluoromethyl)-1H-pyrazol-1-yl]methyl}-1,3,4-thiadiazol-2-amine] are above 10 µM and 5.91 to 6.61.
In the same order, the values of `Cc1cc([N+](=O)[O-])nn1Cc1nnc(Nc2ccn(Cc3ccccc3)n2)s1` [Example 62, 5-[(5-methyl-3-nitro-1H-pyrazol-1-yl)methyl]-N-[1-(phenylmethyl)-1H-pyrazol-3-yl]-1,3,4-thiadiazol-2-amine] are above 10 µM and 5.90 to 6.60.
In test [1], `Fc1cccc(Cl)c1Cn1ccc(Nc2nnc(Cn3ccc(C(F)(F)F)n3)s2)n1` [Example 63, N-{1-[(2-chloro-6-fluorophenyl)methyl]-1H-pyrazol-3-yl}-5-{[3-(trifluoromethyl)-1H-pyrazol-1-yl]methyl}-1,3,4-thiadiazol-2-amine] showed an MIC above 10 µM. In test [2] (read-out: IC50 value), the pIC50 was 5.96 to 6.66.
In the same order, the values of `Cc1cc(C)n(Cc2nnc(Nc3ccn(Cc4ccccc4)n3)s2)n1` [Example 64, 5-[(3,5-dimethyl-1H-pyrazol-1-yl)methyl]-N-[1-(phenylmethyl)-1H-pyrazol-3-yl]-1,3,4-thiadiazol-2-amine] are above 10 µM and 5.86 to 6.56.
